Source: PubChem BioAssay (NCI)
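1) Cells in 96-well plates. 2) Compound, 48 h, 5 concentrations. 3) Linear interpolation between surrounding doses. 4) Unreached endpoint = highest concentration. GI50 is the concentration that inhibits growth by half. Definition used: TGI = concentration required for complete inhibition of growth.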

Legend:
Experiment in all cases: NCI-60 cell line screen, 48 h
[1] = tested on: SF-539 CNS
[2] = tested on: HCT-15 colon
[3] = tested on: A498 renal
[4] = tested on: M14 melanoma
[5] = tested on: SK-OV-3 ovarian
[6] = tested on: NCI-H226 lung
[7] = tested on: TK-10 renal
[8] = tested on: SF-268 CNS
[9] = tested on: MDA-MB-435
[10] = tested on: SR leukemia
[11] = tested on: OVCAR-4 ovarian
[12] = tested on: IGROV1 ovarian
[13] = tested on: CAKI-1 renal
[14] = tested on: SK-MEL-5 melanoma
[15] = tested on: SW-620 colon
[16] = tested on: KM12 colon
[17] = tested on: COLO 205 colon
[18] = tested on: UACC-257 melanoma
[19] = tested on: HT29 colon
[20] = tested on: ACHN renal
[21] = tested on: UACC-62 melanoma
[22] = tested on: NCI-H23 lung
[23] = tested on: DU-145 prostate
[24] = tested on: HCT-116 colon
[25] = tested on: NCI-H460 lung
[26] = tested on: HL-60(TB) leukemia
[27] = tested on: SF-295 CNS
[28] = tested on: U251 CNS
[29] = tested on: PC-3 prostate
[30] = tested on: HS 578T breast
[31] = tested on: 786-0 renal
[32] = tested on: SNB-19 CNS
[33] = tested on: RXF 393 renal
[34] = tested on: MDA-MB-231 breast
[35] = tested on: LOX IMVI melanoma
[36] = tested on: SK-MEL-28 melanoma
[37] = tested on: SK-MEL-2 melanoma
[38] = tested on: RPMI-8226 leukemia
[39] = tested on: NCI/ADR-RES ovarian
[40] = tested on: K-562 leukemia
[41] = tested on: CCRF-CEM leukemia
[42] = tested on: UO-31 renal
[43] = tested on: T-47D breast
[44] = tested on: OVCAR-8 ovarian
[45] = tested on: SNB-75 CNS
[46] = tested on: EKVX NSCLC
[47] = tested on: BT-549 breast
[48] = tested on: HOP-92 NSCLC
[49] = tested on: HOP-62 NSCLC
[50] = tested on: HCC-2998 colon
[51] = tested on: MCF7 breast
[52] = tested on: SN12C renal
[53] = tested on: MALME-3M melanoma
[54] = tested on: NCI-H522 lung
[55] = tested on: OVCAR-5 ovarian
[56] = tested on: OVCAR-3 ovarian
[57] = tested on: A549 NSCLC
[58] = tested on: MOLT-4 leukemia

For `O=C1NC(c2ccc3ccccc3c2)Nc2ccccc21` (stereo not given), the TGI [1] was over 100000 nM, the TGI [2] was over 100000 nM and the TGI [3] was over 100000 nM. The TGI [4] was over 100000 nM, the TGI [5] was over 100000 nM and the TGI [6] was over 100000 nM. For the same compound, the TGI [7] was over 100000 nM, the TGI [8] was over 100000 nM and the TGI [9] was 50700 nM. The TGI [10] was over 100000 nM, the TGI [11] was over 100000 nM and the TGI [12] was over 100000 nM. For the same compound, the TGI [13] was over 100000 nM, the TGI [14] was over 100000 nM and the TGI [15] was over 100000 nM. The TGI [16] was over 100000 nM, the TGI [17] was over 100000 nM and the TGI [18] was over 100000 nM. For the same compound, the TGI [19] was over 100000 nM, the TGI [20] was over 100000 nM and the TGI [21] was over 100000 nM. It also gave a TGI [22] of over 100000 nM, a TGI [23] of over 100000 nM and a TGI [24] of over 100000 nM. The TGI [25] was over 100000 nM, the TGI [26] was over 100000 nM and the TGI [27] was over 100000 nM. It also gave a TGI [28] of over 100000 nM, a TGI [29] of over 100000 nM and a TGI [30] of over 100000 nM. For the same compound, the TGI [31] was over 100000 nM, the TGI [32] was over 100000 nM and the TGI [33] was over 100000 nM. It also gave a TGI [34] of over 100000 nM, a TGI [35] of over 100000 nM and a TGI [36] of over 100000 nM. For the same compound, the TGI [37] was over 100000 nM, the TGI [38] was 69800 nM and the TGI [39] was over 100000 nM. For the same compound, the TGI [40] was 7040 nM, the TGI [41] was over 100000 nM and the TGI [42] was over 100000 nM. For the same compound, the TGI [43] was over 100000 nM, the TGI [44] was over 100000 nM and the TGI [45] was over 100000 nM. For the same compound, the TGI [46] was over 100000 nM, the TGI [47] was 37100 nM and the TGI [48] was over 100000 nM. It also gave a TGI [49] of over 100000 nM, a TGI [50] of over 100000 nM and a TGI [51] of over 100000 nM.

Compound `O=C1/C(=C/c2ccc(Cl)cc2)CN(Cc2cn(CCCNc3ccnc4cc(Cl)ccc34)nn2)C/C1=C\c1ccc(Cl)cc1` has a GI50 [1] of 645 nM, a TGI [1] of 1720 nM and a GI50 [2] of 283 nM. It also gave a TGI [2] of 926 nM, a GI50 [3] of 1230 nM and a TGI [3] of 2530 nM. It also gave a GI50 [4] of 1720 nM, a TGI [4] of 3680 nM and a GI50 [5] of 1840 nM. For the same compound, the TGI [5] was 3520 nM, the GI50 [6] was 1920 nM and the TGI [6] was 4390 nM. For the same compound, the GI50 [7] was 1700 nM, the TGI [7] was 3150 nM and the GI50 [8] was 540 nM. The TGI [8] was 2010 nM, the GI50 [9] was 1300 nM and the TGI [9] was 2690 nM. It also gave a GI50 [10] of 379 nM, a TGI [10] of 1930 nM and a GI50 [11] of 500 nM. The TGI [11] was 2380 nM, the GI50 [12] was 1290 nM and the TGI [12] was 3120 nM. For the same compound, the GI50 [13] was 734 nM, the TGI [13] was 2920 nM and the GI50 [14] was 1720 nM. The TGI [14] was 3140 nM, the GI50 [15] was 316 nM and the TGI [15] was 1370 nM. For the same compound, the GI50 [16] was 291 nM, the TGI [16] was 1110 nM and the GI50 [17] was 565 nM. For the same compound, the TGI [17] was 1800 nM, the GI50 [18] was 1720 nM and the TGI [18] was 3250 nM. The GI50 [19] was 270 nM, the TGI [19] was 775 nM and the GI50 [20] was 1450 nM. It also gave a TGI [20] of 2840 nM, a GI50 [21] of 1770 nM and a TGI [21] of 3350 nM. It also gave a GI50 [22] of 1260 nM, a TGI [22] of 3820 nM and a GI50 [52] of 960 nM. It also gave a TGI [52] of 2770 nM, a GI50 [23] of 1160 nM and a TGI [23] of 2470 nM. For the same compound, the GI50 [24] was 305 nM, the TGI [24] was 833 nM and the GI50 [25] was 429 nM. The TGI [25] was 2060 nM, the GI50 [26] was 809 nM and the TGI [26] was 3330 nM. It also gave a GI50 [27] of 708 nM, a TGI [27] of 1840 nM and a GI50 [28] of 269 nM. The TGI [28] was 900 nM, the GI50 [29] was 391 nM and the TGI [29] was 1590 nM. For the same compound, the GI50 [53] was 1710 nM, the TGI [53] was 3280 nM and the GI50 [30] was 1390 nM. For the same compound, the TGI [30] was 5950 nM, the GI50 [31] was 754 nM and the TGI [31] was 2060 nM. The GI50 [32] was 643 nM, the TGI [32] was 1860 nM and the GI50 [33] was 1650 nM. The TGI [33] was 3150 nM, the GI50 [54] was 1610 nM and the TGI [54] was 3170 nM. For the same compound, the GI50 [34] was 757 nM, the TGI [34] was 2450 nM and the GI50 [35] was 249 nM. The TGI [35] was 719 nM, the GI50 [36] was 1820 nM and the TGI [36] was 3410 nM. For the same compound, the GI50 [37] was 2030 nM, the TGI [37] was 3710 nM and the GI50 [38] was 285 nM. It also gave a TGI [38] of 878 nM, a GI50 [55] of 1260 nM and a TGI [55] of 3060 nM. It also gave a GI50 [39] of 1650 nM, a TGI [39] of 6510 nM and a GI50 [56] of 560 nM. The TGI [56] was 1850 nM, the GI50 [40] was 289 nM and the TGI [40] was 3790 nM. For the same compound, the GI50 [41] was 426 nM, the TGI [41] was over 20500 nM and the GI50 [42] was 1160 nM. The TGI [42] was 2450 nM, the GI50 [43] was 1950 nM and the TGI [43] was 6370 nM. The GI50 [44] was 572 nM, the TGI [44] was 1410 nM and the GI50 [45] was 1390 nM. It also gave a TGI [45] of 2920 nM, a GI50 [57] of 1150 nM and a TGI [57] of 2560 nM. The GI50 [47] was 1640 nM, the TGI [47] was 3180 nM and the GI50 [48] was 1460 nM. It also gave a TGI [48] of 3180 nM, a GI50 [49] of 1470 nM and a TGI [49] of 2940 nM. The GI50 [58] was 878 nM, the TGI [58] was over 24500 nM and the GI50 [50] was 273 nM. For the same compound, the TGI [50] was 712 nM, the GI50 [51] was 362 nM and the TGI [51] was 1460 nM.
